This assay concerns C3H mice. Description: Hair-growth test on shaved back of C3H mice. Type of assay: in vivo. The following applies: 0.2 mL per mouse twice a day for two weeks, measured on sixteenth day. The protocol: The hair-growth promoting effect of the hair tonic of the invention was evaluated according to the following hair-growth test. Commercially available acteoside (manufactured by ChromaDex Corp.) or the crude acteoside according to example 1 was dissolved in a 55% wt aqueous ethanol solution. Comparative example 1 was carried out using this aqueous ethanol solution as the reference.
C3H mice (males of 8-week age, average weight 35 g, a group of 10 mice) were used as test animals. Their back (2 cm×4 cm) was shaved to prepare a test area and from the following day onwards, each test sample (0.2 mL per mouse) was applied twice a day(morning and evening) for two weeks. On the sixteenth day, a picture of the test area was taken with a video camera, and hair-growth was measured with an image analyzer. The hair-growth promoting effect was evaluated as hair-growth rate (%) calculated according to the equation reported below.
[Hair-growth rate (%)]=[area of the hair-growth portion]/[test area]×100

The results in this text go back to patent US20090324760A1, “Hair tonic” (priority 2005, published 2009).

In the case of Acteoside [Example 2], the Hair growth rate reads like this: (sample concentration 0.1 % by weight in 55% wt aqueous ethanol) 61.05%; (sample concentration 0.2 % by weight in 55% wt aqueous ethanol) 65.02%.
